From US20110123512A1, “METHOD OF REGULATING THE HEAT SHOCK RESPONSE” (priority 2008, published 2011)
Entries after “also recorded” stand apart in the source; their conditions may differ.

What was measured:
C. elegans = assay: anesthesia: inhibition of movement and recovery; type: in vivo; details: within the first 15 minutes following exposure; no death; 10 adults per plate
Description: The VA anesthetics used were 2-Bromo-2-chloro-1,1,1-trifluoroethane (Halothane, Fluka, catalog #16730) and Isoflurane (Webster Veterinary NDC#14043-220-05). VA anesthetics were delivered as follows: lids of 1.5 ml eppendorf tubes were cut off, VA was pipetted into the lids, and the lids containing VAs were placed onto plates containing 10 adult wild-type or gcy-8 animals grown as described, and the plates were immediately sealed with parafilm. To inhibit neuronal signaling during the course of heat shock, the VA containing lids were placed on plates 5 minutes prior to the heat shock, and retained during the heat shock treatment of 34° C. for 15 minutes. The lids were then removed 10 minutes post-heat shock during recovery at 20° C., when the plates had equilibrated to 20° C. To inhibit neuronal signaling following the administration of heat shock, animals were heat shocked, and then the lids containing the same volume of VA was placed onto plates 20 minutes post-heat shock, and removed after 30 minutes.
As has been described before, the effect of the VA is extremely variable in any given population of C. elegans (15, 16) and is also influenced by other environmental factors, such as population density, to which the animals are exposed (15). Therefore it was necessary to titrate the amount of VA used for each experiment. […]

[1] = test system: hsp70 (C12C8.1) expression; assay: heat shock induction of hsp70 (C12C8.1) in worms anesthetized with volatile anesthetics; type: in vivo, C. elegans; details: for hsp70 (C12C8.1) expression in somatic cells: wild-type animals exposed to VAs for the full duration of heat shock (34° C., 15 minutes), 2 hours after recovery; for fraction of animals expressing GFP (hsp70 (C12C8.1) promoter GFP reporter): wild-type animals, VAs during heat shock, 2 hours post-heat shock, control 100%
hsp70 (C12C8.1) mRNA [2] = assay: effect of dauer pheromone on the heat shock response; type: in vivo, C. elegans
Description: C. elegans strains were grown as described above, and all animals were heat shocked at a population density of 10 adults per plate. Sufficient N values were obtained by repeating each heat shock experiment a minimum of 3 times, with 3 samples of 10 animals per plate, per experiment. Heat shock at 30° C. or 34° C., for 15 minutes on agarose plates was achieved by sealing plates with parafilm, further sealing within zip-lock bags, and immersing in a water bath equilibrated to the appropriate temperature. Following heat shock, the parafilm was removed and the animals were allowed to recover at 20° C. for the course of the experiment.
mRNA was prepared using the “ABSOLUTELY RNA® Nanoprep Kit” (Stratagene, Catalog #400753). […] Quantitative PCR was performed using iQ™ SYBR® Green Supermix (Bio-Rad, Catalog #170-8880), in the iCycler system (Bio-Rad) at a 25 μl sample volume, in thin wall 200 μl PCR plates (Cat. No. 223-9441) sealed with the optical quality sealing tape (Cat. No. 223-9444).
(§1) The relative amounts of hsp mRNA were determined using the Comparative CT Method for quantitation (14). The levels of hsp mRNA levels within an experiment were determined relative to actin mRNA, which was used as the internal control. The range of input of RNA was determined using serial dilutions of the cDNA that yielded a CT value of <30, for both the target cDNA and actin was used in all experiments. […]

hsp70 (C12C8.1) mRNA [3] = assay: cadmium stress: hsp70 (C12C8.1) induction; type: in vivo, C. elegans; details: 50 μM
Description: (§2) mRNA was prepared using the “ABSOLUTELY RNA® Nanoprep Kit” (Stratagene, Catalog #400753). The manufacturer's protocol was adapted to achieve maximal lysis of worms. Briefly, 5-10 adult animals were picked either from the control or experimental plates into 100 μl of buffer made up by mixing 7 μl 13-ME (instead of the recommended 0.7 μl 13-ME), with 100 μl Lysis Buffer provided by the manufacturer. The suspension was subjected to numerous cycles of freeze-thawing in liquid nitrogen and vortexing until the animals were completely lysed. RNA was then purified as detailed in the manufacturer's protocol. mRNA was reverse transcribed using the ISCRIPT™ cDNA Synthesis Kit (Bio-Rad, Catalog #170-8891). Quantitative PCR was performed using iQ™ SYBR® Green Supermix (Bio-Rad, Catalog #170-8880), in the iCycler system (Bio-Rad) at a 25 μl sample volume, in thin wall 200 μl PCR plates (Cat. No. 223-9441) sealed with the optical quality sealing tape (Cat. No. 223-9444).
as §1

[4] = test system: cadmium responsive genes, cdr-1 and mtl-1; assay: cadmium stress: cadmium-responsive gene induction; type: in vivo, C. elegans
Description: as §2
The relative amounts of hsp mRNA were determined using the Comparative CT Method for quantitation (14). The levels of hsp mRNA levels within an experiment were determined relative to actin mRNA, which was used as the internal control. The range of input of RNA was determined using serial dilutions of the cDNA that yielded a CT value of <30, for both the target cDNA and actin was used in all experiments. This typically corresponded to 1 μl of the total cDNA obtained per sample. CT values were obtained in triplicate for each sample (technical triplicate), and three samples were used per experiment. Each experiment was then repeated a minimum of three times. All relative changes of hsp mRNA in the mutant strains were normalized to maximal wild-type values, except where otherwise noted.
Sterile-filtered cadmium chloride was added to a final concentration of 50 μM to standard, autoclaved, NGM medium, and used to make plates. OP50 was seeded onto the plates as described above. […] These animals were then harvested for quantitative RT-PCR. […]

With `FC(F)(F)C(Cl)Br` (stereo not shown) [halothane, 2-Bromo-2-chloro-1,1,1-trifluoroethane] the “volume of VA that inhibited the movement of 100% of the animals on a plate” value (C. elegans) was 5 to 15 µL, the “hsp70 (C12C8.1) expression in somatic cells” value [1] was “inhibition; also recorded: marked decrease” and the “fraction of animals expressing GFP (hsp70 (C12C8.1) promoter GFP reporter)” value [1] was 20%.
With `C[C@H](CCCCC(=O)O)O[C@@H]1O[C@@H](C)[C@H](O)C[C@H]1O` [dauer pheromone] the “amounts of hsp70 (C12C8.1) mRNA after heat shock” value (hsp70 (C12C8.1) mRNA [2]; gcy-8 mutant animals exposed to dauer pheromone, compared with heat-shocked wild-type under optimal growth conditions) was “induced even higher amounts” and the “amounts of hsp70 (C12C8.1) mRNA after heat shock” value (hsp70 (C12C8.1) mRNA [2]; wild-type animals, high concentrations of dauer pheromone prior to or during heat shock (34° C., 15 minutes)) was “decreased”.
`FC(F)OC(Cl)C(F)(F)F` (stereo not shown) [isoflurane, Isoflurane] was tested, and the “volume of VA that inhibited the movement of 100% of the animals on a plate” value (C. elegans) was 10 to 25 µL, the “hsp70 (C12C8.1) expression in somatic cells” value [1] was “inhibition; also recorded: marked decrease” and the “fraction of animals expressing GFP (hsp70 (C12C8.1) promoter GFP reporter)” value [1] was 20%.
`[Cl][Cd][Cl]` [cadmium, cadmium chloride] was tested, and the “hsp70 (C12C8.1) mRNA further induction” value (hsp70 (C12C8.1) mRNA [3]; after 16 hours of exposure) was “more than 10 fold”, the “hsp70 (C12C8.1) mRNA” value (hsp70 (C12C8.1) mRNA [3]; wild-type and gcy-8 mutant animals, 3 hours of exposure) was “similarly increased” and the “expression of cdr-1 and mtl-1 upon exposure to cadmium” value ([4]; gcy-8 (thermosensory deficient) adult animals) was “can induce”. The “expression of cdr-1 and mtl-1 upon exposure to cadmium” value ([4]; osm-9 and ocr-2 mutant animals) was “deficient in their ability to upregulate” and the “cdr-1 mRNA” value ([4]; wild-type and gcy-8 mutant animals, 3 hours of exposure, 50 μM) was “similarly increased”.
